Consider 8 molecules from patent publication US12281122B1, “PI3K inhibitors” (Cogent Biosciences, Inc., priority 2023, dated 2025).

Experiment [1] deals with SKBR3 (PI3Kα-Wild Type) cell line. The experiment can be described thus: HTRF phospho-AKT(S473) cell assay in SKBR3 cells. It counts as cell-based, human. Particulars: Homo sapiens, SK-BR-3; SKBR3 (PI3Kα-Wild Type) cells, HTRF phospho-AKT(S473), 2 hours compound incubation, PDGF-BB stimulated. A digest of the protocol:
(§1)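 HTRF read-out of phospho-AKT(S473) in lysates gave IC50 values after 2 h compound exposure at 37° C. Dose series was 12 points at 1:3, topping at 5 μM for T47D and 10 μM for SKBR3. Only SKBR3 received 70 ng/ml PDGF-BB during the last 15 minutes.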
A general note: In TR-FRET formats the signal depends on donor and acceptor labels being close together.

Experiment [2] concerns T47D (PI3Kα-H1047R) cell line. Nature of the experiment: HTRF phospho-AKT(S473) cell assay in T47D cells. It counts as cell-based, human. The note with it: Homo sapiens; T47D (PI3Kα-H1047R) cells, HTRF phospho-AKT(S473), 2 hours compound incubation. An outline of the steps: as §1

Bounds are passed on as bounds.

With `Cc1cc([C@@H](C)Nc2ccc(Cl)nc2C(=O)NS(C)(=O)=O)c2nc(N3CCN(c4ccn(C)n4)CC3)n(C)c(=O)c2c1` [Compound 187, (R)-6-chloro-3-((1-(3,6-dimethyl-2-(4-(1-methyl-1H-pyrazol-3-yl)piperazin-1-yl)-4-oxo-3,4-dihydroquinazolin-8-yl)ethyl)amino)-N-(methylsulfonyl) picolinamide], the IC50 (usually the point on the concentration scale where inhibition reaches its midpoint) in experiment [1] is 1000 to 5000 nM; in experiment [2], below 250 nM.
Consider `Cc1cc([C@@H](C)Nc2ccc(Cl)nc2C(=O)NS(C)(=O)=O)c2nc(N3CCN(c4cnn(C)c4)CC3)n(C)c(=O)c2c1` [Compound 188, (R)-6-chloro-3-((1-(3,6-dimethyl-2-(4-(1-methyl-1H-pyrazol-4-yl)piperazin-1-yl)-4-oxo-3,4-dihydroquinazolin-8-yl)ethyl)amino)-N-(methylsulfonyl) picolinamide], for which the IC50 in experiment [1] is 1000 to 5000 nM; in experiment [2], below 250 nM.
Regarding `Cc1cc([C@@H](C)Nc2ccc(Cl)nc2C(=O)NS(C)(=O)=O)c2nc(N3Cc4cn(-c5ccccc5C)nc4C3)n(C)c(=O)c2c1` [Compound 189, (R)-6-chloro-3-((1-(3,6-dimethyl-4-oxo-2-(2-(o-tolyl)-2,6-dihydropyrrolo[3,4-c]pyrazol-5(4H)-yl)-3,4-dihydroquinazolin-8-yl)ethyl)amino)-N-(methylsulfonyl) picolinamide], the figures for the half-maximal inhibitory concentration (IC50) in experiment [1] and in experiment [2] were at least 5000 nM and 250 to 500 nM, respectively.
With `Cc1cc([C@@H](C)Nc2ccc(Cl)nc2C(=O)NS(C)(=O)=O)c2nc(N3CCN(c4ccc(C#N)cc4)CC3)n(C)c(=O)c2c1` [Compound 190, (R)-6-chloro-3-((1-(2-(4-(4-cyanophenyl)piperazin-1-yl)-3,6-dimethyl-4-oxo-3,4-dihydroquinazolin-8-yl)ethyl)amino)-N-(methylsulfonyl) picolinamide], the results for the half-maximal inhibitory concentration (IC50) in experiment [1] and in experiment [2] were 1000 to 5000 nM and below 250 nM, respectively.
Turning to `Cc1cc([C@@H](C)Nc2ccc(Cl)nc2C(=O)NS(C)(=O)=O)c2nc(N3Cc4cnn(-c5ccccc5C)c4C3)n(C)c(=O)c2c1` [Compound 191, (R)-6-chloro-3-((1-(3,6-dimethyl-4-oxo-2-(1-(o-tolyl)-4,6-dihydropyrrolo[3,4-c]pyrazol-5(1H)-yl)-3,4-dihydroquinazolin-8-yl)ethyl)amino)-N-(methylsulfonyl) picolinamide], the IC50 was at least 5000 nM in experiment [1] and below 250 nM in experiment [2].
For `Cc1cc([C@@H](C)Nc2ccc(Cl)nc2C(=O)NS(C)(=O)=O)c2nc(N3Cc4cn(-c5ccncc5)nc4C3)n(C)c(=O)c2c1` [Compound 192, (R)-6-chloro-3-((1-(3,6-dimethyl-4-oxo-2-(2-(pyridin-4-yl)-2,6-dihydropyrrolo[3,4-c]pyrazol-5(4H)-yl)-3,4-dihydroquinazolin-8-yl)ethyl)amino)-N-(methylsulfonyl) picolinamide], in that order: 1000 to 5000 nM and below 250 nM.
Take `Cc1cc([C@@H](C)Nc2ccc(Cl)nc2C(=O)NS(C)(=O)=O)c2nc(N3CCN(c4cnn(CC(F)(F)F)c4)CC3)n(C)c(=O)c2c1` [Compound 193, (R)-6-chloro-3-((1-(3,6-dimethyl-4-oxo-2-(4-(1-(2,2,2-trifluoroethyl)-1H-pyrazol-4-yl)piperazin-1-yl)-3,4-dihydroquinazolin-8-yl)ethyl)amino)-N-(methylsulfonyl) picolinamide]: the IC50 was 1000 to 5000 nM in experiment [1] and below 250 nM in experiment [2].
As to `Cc1cc([C@@H](C)Nc2ccc(Cl)nc2C(=O)NS(C)(=O)=O)c2nc(N3CCc4c(cnn4-c4ccccc4)C3)n(C)c(=O)c2c1` [Compound 195, (R)-6-chloro-3-((1-(3,6-dimethyl-4-oxo-2-(1-phenyl-1,4,6,7-tetrahydro-5H-pyrazolo[4,3-c]pyridin-5-yl)-3,4-dihydroquinazolin-8-yl)ethyl)amino)-N-(methylsulfonyl) picolinamide], the half-maximal inhibitory concentration (IC50) in experiment [1] is 1000 to 5000 nM; in experiment [2] it was below 250 nM.
